These results are taken from patent US12441704B2, “Compounds active towards nuclear receptors” (NUEVOLUTION A/S, priority 2019, dated 2025).

Read-outs that look alike come from different tables or passages of the source.

Assay [1] addresses T1, RORγ ligand-binding domain fused to Gal4 (Homo sapiens, UniProt P51449).
T1 construct: Gal4 (galactose-responsive transcription factor); expressed in transfected cells; host or cells: HEK293
T1 sequence (P51449 269-508 limits assumed): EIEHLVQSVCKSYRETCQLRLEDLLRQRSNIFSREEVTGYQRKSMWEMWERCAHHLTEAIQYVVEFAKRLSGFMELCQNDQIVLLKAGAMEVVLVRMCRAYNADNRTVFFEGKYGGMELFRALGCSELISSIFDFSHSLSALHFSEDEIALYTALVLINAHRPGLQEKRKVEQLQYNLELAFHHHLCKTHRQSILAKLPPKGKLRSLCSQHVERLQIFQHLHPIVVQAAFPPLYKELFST
In words: RORγ Reporter Assay (Gal4). In kind it is cell-based. The method in brief:
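HEK293 cells transiently co-transfected with the Gal4-fused RORγ LBD and a UAS-luciferase reporter were exposed to compounds for 24 h at 37 °C (0.1% DMSO final). Luminescence was read, and percent reduction of RORγ activity was calculated relative to vehicle-average RLU.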

Assay [2] addresses T1, RORγ ligand-binding domain fused to Gal4. Conditions: cited from earlier work.
Assay [3] concerns IL-17A secretion in activated PBMCs. The assay can be described thus: IL-17A secretion in activated PBMCs. The class given is cell-based, human. Conditions: for IC50: human PBMCs stimulated with CD3/CD28 Dynabeads for 48 h, absolute IC50. The method in brief:
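Human PBMCs from healthy donors, 40,000 cells/well, were preincubated 30 min with compound in 10-point 5-fold dilutions (0.1% DMSO), then stimulated 48 h at 37° C with CD3/CD28 beads (1:1). Supernatant IL-17A was read by bead immunoassay on a flow cytometer. Inhibition was normalized to activated DMSO (top) and GNE09461 10 μM (basal).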

Setting [4] is: RORγ Gal4 assay EC50, Examples in <500 range, Examples of WO2016020288, based on % inhibition at 0.1 and/or 1 uM (Table 5 c, footnote 5).
Setting [5] is: comparison compounds of WO2016020288, source marked WO2016020288.
The mark [6] stands for this setting: RORγ Gal4 assay EC50, Examples in <100 range, Examples of WO2016020288, based on % inhibition at 0.1 and/or 1 uM (Table 5 c, footnote 4).
Setting [7] is: comparison examples of WO2016020288 (footnote 1).
Setting [8] is: HEK293 cells co-transfected with RORγ LBD-Gal4 and luciferase reporter, 24 h incubation, absolute EC50, read-out: EC50.
[9] abbreviates: compounds of the present disclosure, value from Table 2 herein, read-out: Gal4 assay EC50.

As for `CC(=O)N1CCC(CNc2ncnc(N(Cc3ccc(C(F)(F)F)cc3)C3CC3)c2F)CC1` [Example A11, reference compound], the figures for the EC50 in assay [1] (setting [4]) and in assay [2] (setting [5]) were below 500 nM and below 100 nM, respectively.

For `NC(=O)Cc1ccc(CNc2ncnc(N(Cc3ccc(C(F)(F)F)cc3)C3CC3)c2F)cc1` [Example A2, reference compound], the half-maximal effective concentration (EC50) was below 100 nM in assay [1] (setting [6]), below 500 nM in assay [1] (setting [4]) and below 100 nM in assay [2] (setting [5]).

Consider `NC(=O)CC1CC(CNc2ncnc(N(Cc3ccc(C(F)(F)F)cc3)C3CC3)c2F)C1` (stereo not shown) [Example A95, reference compound], for which the EC50 in assay [1] (setting [4]) and in assay [2] (setting [5]) was below 500 nM in each case.

Regarding `CS(=O)(=O)N1CCC(CNc2ncnc(N(Cc3ccc(C(F)(F)F)cc3)C3CC3)c2F)CC1` [Example A7, reference compound], the EC50 in assay [1] (setting [6]) was below 100 nM; in assay [1] (setting [4]), below 500 nM; in assay [2] (setting [5]), below 100 nM.

Regarding `NC(=O)Cc1ccc(CNc2ncnc(N(Cc3cccc(OC(F)(F)F)c3)C3CC3)c2F)cc1` [Example A102, reference compound], the results for the EC50 in assay [1] (setting [6]), in assay [1] (setting [4]) and in assay [2] (setting [7]) were below 100 nM, below 500 nM and below 100 nM, respectively.

On to `NC(=O)CN1CC[C@@H](CNc2ncnc(N(Cc3ccc(C(F)(F)F)nc3)C3CC3)c2F)[C@H](O)C1` (racemic) [Example A7-28, rac-2-((3R,4R)-4-(((6-(cyclopropyl((6-(trifluoromethyl)pyridin-3-yl)methyl)amino)-5-fluoropyrimidin-4-yl)amino)methyl)-3-hydroxypiperidin-1-yl)acetamide], for which the IC50 in assay [3] (Homo sapiens, PBMC, 48 h) is 120 nM. Also, in assay [1] (setting [8]), the EC50 was found to be 20.5 nM.

The compound `CCN(Cc1ccc(-n2cccn2)cc1)c1ncnc(NC[C@@H]2CCN(CC(N)=O)C[C@H]2O)c1F` (racemic) [Example A7-77, rac-2-((3R,4R)-4-(((6-((4-(1H-Pyrazol-1-yl)benzyl)(ethyl)amino)-5-fluoropyrimidin-4-yl)amino)methyl)-3-hydroxypiperidin-1-yl)acetamide] returned an IC50 in assay [3] (Homo sapiens, PBMC, 48 h) of 440 nM. The EC50 in assay [1] (setting [8]) was 73 nM.

In assay [3] (Homo sapiens, PBMC, 48 h), `NC(=O)CN1CCC(CNc2ncnc(N(Cc3ccc(C(F)(F)F)cc3)C3CC3)c2F)(c2cnn[nH]2)CC1` [Example A7-85, 2-(4-(((6-(Cyclopropyl(4-(trifluoromethyl)benzyl)amino)-5-fluoropyrimidin-4-yl)amino)methyl)-4-(1H-1,2,3-triazol-5-yl)piperidin-1-yl)acetamide] yielded an IC50 of 120 nM. The half-maximal effective concentration (EC50) in assay [1] (setting [8]) is 7.9 nM.

`NC(=O)CN1CCC(CO)(CNc2ncnc(N(Cc3ccc(C(F)(F)F)cn3)C3CC3)c2F)CC1` [Example A7-52, 2-(4-(((6-(cyclopropyl((5-(trifluoromethyl)pyridin-2-yl)methyl)amino)-5-fluoropyrimidin-4-yl)amino)methyl)-4-(hydroxymethyl)piperidin-1-yl)acetamide]: in assay [3] (Homo sapiens, PBMC, 48 h), the concentration for half-maximal inhibition (IC50) worked out at 130 nM. Also, the EC50 in assay [1] (setting [8]) is 42 nM; in assay [1] (setting [9]), below 100 nM.

In the case of `CCN(Cc1ccc(C(F)(F)F)cc1)c1ncnc(NC[C@H]2CCN(C(CO)C(N)=O)C[C@@H]2O)c1F` (relative stereo) [Example A7-66-2, rel-(R)-2-((3R,4R)-4-(((6-(ethyl(4-(trifluoromethyl)benzyl)amino)-5-fluoropyrimidin-4-yl)amino)methyl)-3-hydroxypiperidin-1-yl)-3-hydroxypropanamide OR rel-(R)-2-((3S,4S)-4-(((6-(ethyl(4-(trifluoromethyl)benzyl)amino)-5-fluoropyrimidin-4-yl)amino)methyl)-3-hydroxypiperidin-1-yl)-3-hydroxypropanamide], inhibition in assay [3] was half-maximal at 210 nM (IC50). Further, the EC50 in assay [1] (setting [8]) was 88 nM.

`CC(c1ccc(C(F)(F)F)cc1)N(c1ncnc(NCc2ccc(CC(N)=O)cc2)c1F)C1CC1` (stereo not shown) [Example A3, reference compound]: the EC50 in assay [1] (setting [6]) is below 100 nM; in assay [1] (setting [4]), below 500 nM; in assay [2] (setting [7]) it was below 100 nM.

In the case of `NC(=O)C(c1ccncc1)N1CC[C@](O)(CNc2ncnc(N(Cc3ccc(C(F)(F)F)cc3)C3CC3)c2F)[C@@H](O)C1` (relative stereo) [Example D5-08, rel-2-((3R,4R)-4-(((6-(cyclopropyl(4-(trifluoromethyl)benzyl)amino)-5-fluoropyrimidin-4-yl)amino)methyl)-3,4-dihydroxypiperidin-1-yl)-2-(pyridin-4-yl)acetamide], in assay [3] (Homo sapiens, PBMC, 48 h), inhibition was half-maximal at 2.7 nM (IC50). In addition, in assay [1] (setting [8]), the EC50 is 6.1 nM.

Compound `Cn1cc(-c2ccc(CN(c3ncnc(NC[C@@H]4CCN(CC(N)=O)C[C@H]4O)c3F)C3CC3)cc2)cn1` (racemic) [Example A7-74, rac-2-((3R,4R)-4-(((6-(cyclopropyl(4-(1-methyl-1H-pyrazol-4-yl)benzyl)amino)-5-fluoropyrimidin-4-yl)amino)methyl)-3-hydroxypiperidin-1-yl)acetamide] had an IC50 in assay [3] (Homo sapiens, PBMC, 48 h) of 23 nM. Also, in assay [1] (setting [8]), the half-maximal effective concentration (EC50) worked out at 12 nM.

In assay [3] (Homo sapiens, PBMC, 48 h), `NC(=O)CN1CC[C@@H](CNc2ncnc(N(Cc3ccc(C(F)(F)F)nc3)C3CC3)c2F)[C@H](O)C1` (single isomer, unassigned) [Example A7-28-1] gave an IC50 of 62 nM. The EC50 in assay [1] (setting [8]) is 42 nM.

In assay [3] (Homo sapiens, PBMC, 48 h), `NC(=O)CN1CCC(O)(CNc2ncnc(N(Cc3ccc(C(F)(F)F)cn3)C3CC3)c2F)CC1` [Example A7-09, 2-(4-(((6-(cyclopropyl((5-(trifluoromethyl)pyridin-2-yl)methyl)amino)-5-fluoropyrimidin-4-yl)amino)methyl)-4-hydroxypiperidin-1-yl)acetamide] came in with an IC50 of 190 nM. Moreover, the values for the EC50 in assay [1] (setting [8]) and in assay [1] (setting [9]) were 44 nM and below 100 nM, respectively.

Take `CN(Cc1cccc(OC(F)(F)F)c1)c1ncnc(NCc2ccc(CC(N)=O)cc2)c1F` [Example A128, reference compound]: the figures for the EC50 in assay [1] (setting [6]), in assay [1] (setting [4]) and in assay [2] (setting [7]) were below 100 nM, below 500 nM and below 100 nM, respectively.

The compound `CCN(Cc1ccc(C#N)cc1)c1ncnc(NC[C@@H]2CCN(CC(N)=O)C[C@H]2O)c1F` (racemic) [Example A7-78, rac-2-((3R,4R)-4-(((6-((4-cyanobenzyl)(ethyl)amino)-5-fluoropyrimidin-4-yl)amino)methyl)-3-hydroxypiperidin-1-yl)acetamide] displayed an inhibition at 10 µM in assay [3] (PBMC, @10 uM, human PBMCs stimulated with CD3/CD28 Dynabeads) of 70%. For the same compound, in assay [1] (setting [8]), the EC50 stood at 65 nM.

For the compound `NC(=O)Cc1ccc(CNc2ncnc(N(Cc3ccc(C(F)(F)F)cn3)C3CC3)c2F)cc1` [Example A85, reference compound], the EC50 in assay [1] (setting [6]) is below 100 nM; in assay [1] (setting [4]), below 500 nM; in assay [2] (setting [7]) it was below 100 nM.

`NC(=O)CN1CC[C@@H](CNc2ncnc(N(Cc3ccc(C(F)(F)F)cn3)C3CC3)c2F)[C@H](O)C1` (racemic) [Example A7-14, rac-2-((3R,4R)-4-(((6-(cyclopropyl((5-(trifluoromethyl)pyridin-2-yl)methyl)amino)-5-fluoropyrimidin-4-yl)amino)methyl)-3-hydroxypiperidin-1-yl)acetamide] returned a half-inhibitory concentration (IC50) in assay [3] (Homo sapiens, PBMC, 48 h) of 28 nM. In addition, the EC50 in assay [1] (setting [8]) came out at 15 nM.

Take `NC(=O)CN1CCC(CNc2ncnc(N(Cc3ccc(C(F)(F)F)cc3)C3CC3)c2F)(c2nnco2)CC1` [Example A7-82, 2-(4-(((6-(Cyclopropyl(4-(trifluoromethyl)benzyl)amino)-5-fluoropyrimidin-4-yl)amino)methyl)-4-(1,3,4-oxadiazol-2-yl)piperidin-1-yl)acetamide]: 150 nM corresponded to half-maximal inhibition in assay [3] (Homo sapiens, PBMC, 48 h) (IC50). In addition, the EC50 in assay [1] (setting [8]) is 8.1 nM.

Consider `NC(=O)Cc1ccc(CNc2ncnc(N(Cc3ccc(C(F)(F)F)nc3)C3CC3)c2F)cc1` [Example A83, reference compound], for which the 50% effective concentration (EC50) in assay [1] (setting [6]) is below 100 nM; in assay [1] (setting [4]), below 500 nM; in assay [2] (setting [7]) it was below 100 nM.

On to `OC1(CNc2ncnc(N(Cc3ccc(C(F)(F)F)cc3)C3CC3)c2F)CCC(F)(F)CC1` [Example A44, reference compound], for which the EC50 in assay [1] (setting [6]) is below 100 nM; in assay [1] (setting [4]) it was below 500 nM; in assay [2] (setting [5]), below 100 nM.

Regarding `CCN(Cc1ccc(C(F)(F)F)cc1)c1ncnc(NC[C@]2(O)CCN(CC(N)=O)C[C@H]2O)c1F` (single isomer, unassigned) [Example D5-01-1-2], the IC50 in assay [3] worked out at 24 nM. The EC50 in assay [1] (setting [8]) amounted to 9.6 nM.

Compound `NC(=O)CN1CC[C@@H](CNc2ncnc(N(Cc3ccc(C(F)(F)F)cc3)[C@H]3C[C@H](F)C3)c2F)[C@H](O)C1` (racemic) [Example A7-31, rac-2-((3R,4R)-4-(((5-fluoro-6-(((1r,3S)-3-fluorocyclobutyl)(4-(trifluoromethyl)benzyl)amino)pyrimidin-4-yl)amino)methyl)-3-hydroxypiperidin-1-yl)acetamide] yielded an IC50 in assay [3] (Homo sapiens, PBMC, 48 h) of 180 nM. Also, in assay [1] (setting [8]), the EC50 stood at 29 nM.
